Where “and” joins values, the source holds several entries; their conditions need not be identical. Equal values may be shown once. Read-outs that look alike come from different tables or passages of the source.
Tests used:
MDA-MB-435 = test: NCI screen antiproliferative activity, breast MDA-MB-435; type: cell-based, human; details: concentration corresponding to 50% growth inhibition, read-out: cytotoxicity (GI50) breast MDA-MB-435
Experimental: (§1) Selected indenoisoquinolones described herein were examined for antiproliferative activity against the human cancer cell lines in the National Cancer Institute screen, in which the activity of each compound was evaluated with approximately 55 different cancer cell lines of diverse tumor origins.

human cancer cell lines = test: NCI screen mean graph midpoint over approximately 55 cancer cell lines; type: cell-based; details: for GI50: read-out: MGM (mean graph midpoint for growth inhibition); for cytotoxicity compared with other compounds: human cancer cell cultures
Experimental: Selected indenoisoquinolones described herein were examined for antiproliferative activity against the human cancer cell lines in the National Cancer Institute screen, in which the activity of each compound was evaluated with approximately 55 different cancer cell lines of diverse tumor origins. […] The relative activities of selected indenoisoquinolines described herein were obtained from the top 1-mediated DNA cleavage assay, and are also shown in Table 1. Compounds 2 and 7 are also included the Table 1.

Human recombinant top1 = target: T1, Human recombinant top1 (Homo sapiens, UniProt P11387); test: Top1-mediated DNA cleavage reactions; type: biochemical; parameters: key to Top 1 Cleavage: weak activity (+); activity similar to compound 2 (++); activity greater than compound 2 (+++); details: for Top 1 Cleavage: tested at concentrations ranging up to 10 μM, relative to compound 2
T1 construct: made in house
T1 sequence (P11387 1-765): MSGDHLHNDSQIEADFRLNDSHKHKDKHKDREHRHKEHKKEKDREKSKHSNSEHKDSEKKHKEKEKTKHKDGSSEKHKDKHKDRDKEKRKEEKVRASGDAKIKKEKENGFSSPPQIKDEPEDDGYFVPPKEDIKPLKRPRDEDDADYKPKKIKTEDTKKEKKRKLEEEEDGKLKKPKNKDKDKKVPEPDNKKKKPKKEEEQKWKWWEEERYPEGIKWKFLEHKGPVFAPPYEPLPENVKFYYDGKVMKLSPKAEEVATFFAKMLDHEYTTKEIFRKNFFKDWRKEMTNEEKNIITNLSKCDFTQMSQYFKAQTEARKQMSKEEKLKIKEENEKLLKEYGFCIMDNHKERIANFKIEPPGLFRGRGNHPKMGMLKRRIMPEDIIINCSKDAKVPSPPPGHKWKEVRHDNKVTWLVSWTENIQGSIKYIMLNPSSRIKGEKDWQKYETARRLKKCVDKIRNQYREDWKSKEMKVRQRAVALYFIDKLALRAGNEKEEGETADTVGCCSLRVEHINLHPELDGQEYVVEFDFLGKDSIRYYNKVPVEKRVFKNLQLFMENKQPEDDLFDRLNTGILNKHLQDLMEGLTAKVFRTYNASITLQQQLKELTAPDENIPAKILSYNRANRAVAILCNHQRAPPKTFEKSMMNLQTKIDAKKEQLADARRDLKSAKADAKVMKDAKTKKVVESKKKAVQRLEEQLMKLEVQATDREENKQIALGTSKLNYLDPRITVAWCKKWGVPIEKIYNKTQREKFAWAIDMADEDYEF
Experimental: Human recombinant top1 was purified from Baculovirus as described by Pourquier et al. in J. Biol. Chem. 274:8516-23 (1999), the disclosure of which is incorporated herein by reference. The 161 bp fragment from pBluescript SK(−) phagemid DNA (Stratagene, La Jolla, Calif.) was cleaved with the restriction endonuclease Pvu II and Hind III (New England Biolabs, Beverly, Mass.) in supplied NE buffer 2 (10 μL reactions) for 1 h at 37° C., and separated by electrophoresis in a 1% agarose gel made in 1×TBE buffer. The 161 bp fragment was eluted from the gel slice (centrilutor by Amicon) and concentrated in a centricon 50 centrifugal concentrator (Amicon, Beverly, Mass.). Approximately 200 ng of the fragment was 3′-end labeled at the Hind III site by fill-in reaction with [alpha-^32P]-dGTP and 0.5 mM dATP, dCTP, and dTTP, in React 2 buffer (50 mM Tris-HCl, pH 8.0, […], 50 mM NaCl) with 0.5 units of DNA polymerase I (Klenow fragment). Unincorporated ^32P-dGTP was removed using mini Quick Spin DNA columns (Roche, Indianapolis, Ind.), and the eluate containing the 3′-end-labeled 161 bp fragment was collected. Aliquots (approximately 50,000 dpm/reaction) were incubated with top1 at 22° C. for 30 min in the presence of the tested drug. Reactions were terminated by adding SDS (0.5% final concentration). The samples (10 μL) were mixed with 30 μL of loading buffer (80% formamide, 10 mM sodium hydroxide, 1 mM sodium EDTA, 0.1% xylene cyanol, and 0.1% bromophenol blue, pH 8.0). Aliquots were separated in denaturing gels (16% polyacrylamide, 7 M urea). Gels were dried and visualized by using a Phosphoimager and ImageQuant software (Molecular Dynamics, Sunnyvale, Calif.).

HOP-62 = test: NCI screen antiproliferative activity, lung HOP-62; type: cell-based; details: Homo sapiens, concentration corresponding to 50% growth inhibition, read-out: cytotoxicity (GI50) lung HOP-62
Experimental: as §1

HCT-116 = test: NCI screen antiproliferative activity, colon HCT-116; type: cell-based; details: Homo sapiens, concentration corresponding to 50% growth inhibition, read-out: cytotoxicity (GI50) colon HCT-116
Experimental: as §1

SF-539 = test: NCI screen antiproliferative activity, CNS SF-539; type: cell-based; details: Homo sapiens, concentration corresponding to 50% growth inhibition, read-out: cytotoxicity (GI50) CNS SF-539
Experimental: as §1

UACC-62 = test: NCI screen antiproliferative activity, melanoma UACC-62; type: cell-based; details: Homo sapiens, concentration corresponding to 50% growth inhibition, read-out: cytotoxicity (GI50) melanoma UACC-62
Experimental: as §1

OVCAR-3 = test: NCI screen antiproliferative activity, ovarian OVCAR-3; type: cell-based; details: Homo sapiens, concentration corresponding to 50% growth inhibition, read-out: cytotoxicity (GI50) ovarian OVCAR-3
Experimental: as §1

SN12C = test: NCI screen antiproliferative activity, renal SN12C; type: cell-based; details: Homo sapiens, concentration corresponding to 50% growth inhibition, read-out: cytotoxicity (GI50) renal SN12C
Experimental: as §1

DU-145 = test: NCI screen antiproliferative activity, prostate DU-145; type: cell-based; details: Homo sapiens, concentration corresponding to 50% growth inhibition, read-out: cytotoxicity (GI50) prostate DU-145
Experimental: as §1

SMILES | GI50 (MDA-MB-435) [µM] | GI50 (human cancer cell lines; average GI50 of all approximately 55 cell lines, values outside 10^-8 to 10^-4 molar taken as the limits) | Top 1 Cleavage (Human recombinant top1) | GI50 (HOP-62) [µM] | GI50 (HCT-116) [µM] | GI50 (SF-539) [µM] | GI50 (UACC-62) [µM] | GI50 (OVCAR-3) [µM] | GI50 (SN12C) [µM] | GI50 (DU-145) [µM] | GI50 (MDA-MB-435; Homo sapiens) [µM] | GI50 (human cancer cell lines; Homo sapiens) [µM] | cytotoxicity compared with other compounds (human cancer cell lines) | pattern of top1-mediated DNA cleavage sites (Human recombinant top1) | melting point | top1 inhibitory activity compared with other compounds (Human recombinant top1)
COc1cc2c3c(n(C)c(=O)c2cc1OC)-c1cc2c(cc1C3=O)OCO2 [compound 2, reference compound] | 96 | 20.0 µM and 20 µM | ++ |  |  |  |  |  |  |  |  |  |  |  |  | 
COc1cc2cc3n(c(=O)c2cc1OC)Cc1cc2ccccc2nc1-3 [compound 8, 8,9-Dimethoxy-12H-5,11a-diaza-dibenzo[b,h]fluoren-11-one] |  |  | + | > 100 | 57.3 | > 100 | > 100 | > 100 | > 100 | > 100 | > 100 | 91.2 | generally less cytotoxic than compound 2 |  |  | 
O=c1c2ccccc2cc2n1Cc1cc3ccccc3nc1-2 [compound 13, 12H-5,11a-Diaza-dibenzo[b,h]fluoren-11-one] |  |  | ++ | 68.2 | 32.7 | 66.7 | 97.2 | 39.8 | > 100 | > 100 | 41.8 | 58.9 | generally less cytotoxic than compound 2 | better resembled that of compound 2 than that of camptothecin |  | 
COc1cc2c3c(n(C)c(=O)c2cc1OC)-c1cc2c(cc1C3=CCCCCl)OCO2 [compound 18, 11-(4′-Chlorobutylidene)-5,6-dihydro-2,3-dimethoxy-6-methyl-8,9-methylenedioxy-5-oxo-11H-indeno[1,2-c]isoquinoline] |  |  | + |  |  |  |  |  | > 100 |  | > 100 | 33.1 |  |  | 196 to 201 °C | 
COc1cc2c3c(n(C)c(=O)c2cc1OC)-c1cc2c(cc1C3=CCCCBr)OCO2 [compound 19, 11-(4′-Bromobutylidene)-5,6-dihydro-2,3-dimethoxy-6-methyl-8,9-methylenedioxy-5-oxo-11H-indeno[1,2-c]isoquinoline] |  |  | 0 | 19.4 | 37.8 | 30 | 11.4 | 58.1 | > 100 | 67.8 | > 100 | 27.8 |  |  | 197 to 199 °C | 
COc1cc2c3c(n(C)c(=O)c2cc1OC)-c1cc2c(cc1C3=CCCCCBr)OCO2 [compound 20, 11-(5′-Bromopentylidene)-5,6-dihydro-2,3-dimethoxy-6-methyl-8,9-methylenedioxy-5-oxo-11H-indeno[1,2-c]isoquinoline] |  |  |  |  |  |  | > 100 | > 100 | > 100 |  | > 100 | 33.1 |  |  | 196 to 197 °C | higher inhibitory activity against top1 than the four-carbon alkenyl halides 19 and 24
COc1cc2c3c(n(C)c(=O)c2cc1OC)-c1cc2c(cc1C3=CCCCCCBr)OCO2 [compound 21, 11-(6′-Bromohexylidene)-5,6-dihydro-2,3-dimethoxy-6-methyl-8,9-methylenedioxy-5-oxo-11H-indeno[1,2-c]isoquinoline] |  |  | + |  |  |  |  |  |  |  |  | 7.8 | slightly more cytotoxic than compounds 18-20 |  | 182 to 185 °C | higher inhibitory activity against top1 than the four-carbon alkenyl halides 19 and 24
COc1cc2c3c(n(C)c(=O)c2cc1OC)-c1cc2c(cc1C3=CCCCI)OCO2 [compound 24, 11-(4′-Iodobutylidene)-5,6-dihydro-2,3-dimethoxy-6-methyl-8,9-methylenedioxy-5-oxo-11H-indeno[1,2-c]isoquinoline] |  |  | 0 | 27.6 | 0.56 | 4.3 | 3.5 | 22.8 | 8.8 | 28.7 | 5.2 | 16.8 | slightly more cytotoxic than compounds 18-20 |  | 173 to 174.5 °C | 
COc1cc2c3c(n(C)c(=O)c2cc1OC)-c1cc2c(cc1C3=CCCN)OCO2 [compound 26, 11-(3′-Aminopropylidene)-5,6-dihydro-2,3-dimethoxy-6-methyl-8,9-methylenedioxy-5-oxo-11H-indeno[1,2-c]isoquinoline] |  |  | +++ | 0.071 | 0.028 | 0.42 | 0.2 | 0.56 | 0.58 | 0.37 | 1.8 | 0.34 |  |  | > 180 °C (dec.) | more potent as a top1 poison than compound 2

From patent US7312228B2, “Cytotoxic indeno and isoindoloisoquinolones” (Purdue Research Foundation, priority 2003, dated 2007)
